Results reported in PubChem BioAssay AID1963984 (Molecular Pharmacology Branch, DTP, NCI, 2024).

Tested on: 233499-124-R-J3-PDC spheroids with HUVEC/MSC, viability
Experiment: Anticancer human tumor 233499-124-R-J3-PDC patient-derived colon adenocarcinoma cell line growth inhibition [PI3K]
Details: for IC50: curve of first compound; for viability, T/C: stronger effect = lower value
In short: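 Spheroid viability read-out. Co-cultures contained the tumor line plus HUVEC and human MSCs. Each agent was paired with a PI3K inhibitor (inavolisib, alpelisib, duvelisib, copanlisib) across half-log dilutions starting at clinical Cmax, or at 10 microM when Cmax was unknown.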

[1] = second compound 0.00316 µM, first compound 0.0316 µM
[2] = second compound 0.00316 µM, first compound 0.1 µM
[3] = second compound 0.00316 µM, first compound 0.316 µM
[4] = second compound 0.00316 µM, first compound 1 µM
[5] = second compound 0.00316 µM, first compound 3.16 µM
[6] = second compound 0.00316 µM, first compound 10 µM
[7] = second compound 0.01 µM, first compound 0.0316 µM
[8] = second compound 0.01 µM, first compound 0.1 µM
[9] = second compound 0.01 µM, first compound 0.316 µM
[10] = second compound 0.01 µM, first compound 1 µM
[11] = second compound 0.01 µM, first compound 3.16 µM
[12] = second compound 0.01 µM, first compound 10 µM
[13] = second compound 0.0316 µM, first compound 0.0316 µM
[14] = second compound 0.0316 µM, first compound 0.1 µM
[15] = second compound 0.0316 µM, first compound 0.316 µM
[16] = second compound 0.0316 µM, first compound 1 µM
[17] = second compound 0.0316 µM, first compound 3.16 µM
[18] = second compound 0.0316 µM, first compound 10 µM
[19] = second compound 0.1 µM, first compound 0.0316 µM
[20] = second compound 0.1 µM, first compound 0.1 µM
[21] = second compound 0.1 µM, first compound 0.316 µM
[22] = second compound 0.1 µM, first compound 1 µM
[23] = second compound 0.1 µM, first compound 3.16 µM
[24] = second compound 0.1 µM, first compound 10 µM
[25] = second compound 0.316 µM, first compound 0.0316 µM
[26] = second compound 0.316 µM, first compound 0.1 µM
[27] = second compound 0.316 µM, first compound 0.316 µM
[28] = second compound 0.316 µM, first compound 1 µM
[29] = second compound 0.316 µM, first compound 3.16 µM
[30] = second compound 0.316 µM, first compound 10 µM
[31] = second compound 1 µM, first compound 0.0316 µM
[32] = second compound 1 µM, first compound 0.1 µM
[33] = second compound 1 µM, first compound 0.316 µM
[34] = second compound 1 µM, first compound 1 µM
[35] = second compound 1 µM, first compound 3.16 µM
[36] = second compound 1 µM, first compound 10 µM
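Also: spheroids exposed to agents for seven days before readout.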
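For viability, T/C in this document: percent viability relative to DMSO vehicle control taken as 100%.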

For `C#Cc1c(F)ccc2cc(O)cc(-c3ncc4c(N5CC6CCC(C5)N6)nc(OCC56CCCN5CC(F)C6)nc4c3F)c12` (centres undefined) + COc1c(OCCCN2CCOCC2)ccc2c3n(c(=NC(=O)c4cnc(N)nc4)nc12)CCN3, the IC50 (second compound 0.00316 µM) was greater than 10 µM, the IC50 (second compound 0.01 µM) was greater than 10 µM and the IC50 (second compound 0.0316 µM) was greater than 10 µM. The IC50 (second compound 0.1 µM) was 2.23 µM, the IC50 (second compound 0.316 µM) was less than 0.0316 µM and the IC50 (second compound 1 µM) was less than 0.0316 µM. It also gave a viability, T/C [1] of 85.5%, a viability, T/C [2] of 100% and a viability, T/C [3] of 82.9%. The viability, T/C [4] was 95.1%, the viability, T/C [5] was 81% and the viability, T/C [6] was 67.2%. The viability, T/C [7] was 81.5%, the viability, T/C [8] was 95.2% and the viability, T/C [9] was 86.9%. The viability, T/C [10] was 91.6%, the viability, T/C [11] was 81.2% and the viability, T/C [12] was 80.8%. For the same compound, the viability, T/C [13] was 93.3%, the viability, T/C [14] was 91.3% and the viability, T/C [15] was 74.8%. It also gave a viability, T/C [16] of 92.7%, a viability, T/C [17] of 71.2% and a viability, T/C [18] of 68.7%. For the same compound, the viability, T/C [19] was 62.6%, the viability, T/C [20] was 86.5% and the viability, T/C [21] was 71.2%. It also gave a viability, T/C [22] of 63.5%, a viability, T/C [23] of 44.3% and a viability, T/C [24] of 29.7%. For the same compound, the viability, T/C [25] was 24.9%, the viability, T/C [26] was 26% and the viability, T/C [27] was 27.1%. For the same compound, the viability, T/C [28] was 11.7%, the viability, T/C [29] was 13.3% and the viability, T/C [30] was 4.16%. It also gave a viability, T/C [31] of 4.26%, a viability, T/C [32] of 9.48% and a viability, T/C [33] of 8.52%. For the same compound, the viability, T/C [34] was 3.87%, the viability, T/C [35] was 4.18% and the viability, T/C [36] was 2.6%.

`C=CC(=O)N1CCN(c2nc(=O)n(-c3c(C)ccnc3C(C)C)c3nc(-c4c(O)cccc4F)c(F)cc23)C(C)C1` (centres undefined) + COc1c(OCCCN2CCOCC2)ccc2c3n(c(=NC(=O)c4cnc(N)nc4)nc12)CCN3 showed an IC50 (second compound 0.00316 µM) greater than 10 µM, an IC50 (second compound 0.01 µM) greater than 10 µM and an IC50 (second compound 0.0316 µM) greater than 10 µM. For the same compound, the IC50 (second compound 0.1 µM) was greater than 10 µM, the IC50 (second compound 0.316 µM) was less than 0.0316 µM and the IC50 (second compound 1 µM) was less than 0.0316 µM. It also gave a viability, T/C [1] of 98.1%, a viability, T/C [2] of 103% and a viability, T/C [3] of 87.8%. It also gave a viability, T/C [4] of 97.7%, a viability, T/C [5] of 88.4% and a viability, T/C [6] of 119%. The viability, T/C [7] was 109%, the viability, T/C [8] was 101% and the viability, T/C [9] was 85.5%. The viability, T/C [10] was 86.5%, the viability, T/C [11] was 84.6% and the viability, T/C [12] was 113%. The viability, T/C [13] was 94.1%, the viability, T/C [14] was 98.3% and the viability, T/C [15] was 85.3%. It also gave a viability, T/C [16] of 95.6%, a viability, T/C [17] of 103% and a viability, T/C [18] of 92.5%. The viability, T/C [19] was 101%, the viability, T/C [20] was 73.4% and the viability, T/C [21] was 88%. It also gave a viability, T/C [22] of 58.9%, a viability, T/C [23] of 67.6% and a viability, T/C [24] of 82%. The viability, T/C [25] was 46.3%, the viability, T/C [26] was 39.4% and the viability, T/C [27] was 33.1%. For the same compound, the viability, T/C [28] was 36.4%, the viability, T/C [29] was 43.7% and the viability, T/C [30] was 36%. For the same compound, the viability, T/C [31] was 10%, the viability, T/C [32] was 7.27% and the viability, T/C [33] was 12.6%. For the same compound, the viability, T/C [34] was 6.71%, the viability, T/C [35] was 15.8% and the viability, T/C [36] was 7.62%.
